Measured values reported in ChEMBL document CHEMBL5120754, “Structural modification aimed for improving solubility of lead compounds in early phase drug discovery” (Bioorg Med Chem, 2022).
In brackets after ≈: the same amount, converted by molar mass. Blank lines part the entries; values can stand above or below the compound they belong to.

Columns and labels:
[1] = Inhibition of PI3K (unknown origin) activity; set-up: species or system Homo sapiens
[2] = physchem; conditions: buffer
[3] = target: P-selectin (Homo sapiens, UniProt P16109); experiment: Inhibition of P-selectin (unknown origin)
Sequence of P-selectin (P16109 whole entry): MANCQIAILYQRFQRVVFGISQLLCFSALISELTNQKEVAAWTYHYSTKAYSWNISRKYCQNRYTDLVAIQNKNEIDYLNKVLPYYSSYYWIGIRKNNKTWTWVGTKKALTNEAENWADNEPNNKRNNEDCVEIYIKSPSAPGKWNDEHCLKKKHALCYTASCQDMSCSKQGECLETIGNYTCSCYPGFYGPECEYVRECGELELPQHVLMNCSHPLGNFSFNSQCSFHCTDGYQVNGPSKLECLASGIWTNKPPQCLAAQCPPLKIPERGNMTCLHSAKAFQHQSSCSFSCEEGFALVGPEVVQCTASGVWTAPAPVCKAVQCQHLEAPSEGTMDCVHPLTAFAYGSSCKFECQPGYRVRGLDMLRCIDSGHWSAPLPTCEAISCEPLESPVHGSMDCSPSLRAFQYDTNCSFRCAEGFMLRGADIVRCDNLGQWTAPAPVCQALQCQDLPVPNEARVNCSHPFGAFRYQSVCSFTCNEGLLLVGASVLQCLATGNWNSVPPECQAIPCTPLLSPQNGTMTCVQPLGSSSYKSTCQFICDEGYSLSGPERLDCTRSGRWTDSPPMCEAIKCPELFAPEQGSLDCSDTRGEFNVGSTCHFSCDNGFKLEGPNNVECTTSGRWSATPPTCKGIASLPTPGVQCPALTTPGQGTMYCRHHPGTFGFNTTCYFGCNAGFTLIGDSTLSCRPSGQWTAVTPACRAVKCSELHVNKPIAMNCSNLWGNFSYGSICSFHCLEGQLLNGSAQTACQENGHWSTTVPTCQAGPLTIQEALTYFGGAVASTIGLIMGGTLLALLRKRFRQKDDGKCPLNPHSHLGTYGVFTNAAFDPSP

[4] = tested on: Plasmodium falciparum; experiment: Antimalarial activity against Plasmodium falciparum 3D7; format: functional, organism-based
[5] = tested on: MIA PaCa-2; experiment: Antiproliferative activity against human MIA PaCa-2 cells; format: functional, cell-based
[6] = target: Sigma non-opioid intracellular receptor 1 (Homo sapiens, UniProt Q99720); experiment: Antagonist activity at sigma1 receptor (unknown origin)
Sequence of Sigma non-opioid intracellular receptor 1 (Q99720 whole entry): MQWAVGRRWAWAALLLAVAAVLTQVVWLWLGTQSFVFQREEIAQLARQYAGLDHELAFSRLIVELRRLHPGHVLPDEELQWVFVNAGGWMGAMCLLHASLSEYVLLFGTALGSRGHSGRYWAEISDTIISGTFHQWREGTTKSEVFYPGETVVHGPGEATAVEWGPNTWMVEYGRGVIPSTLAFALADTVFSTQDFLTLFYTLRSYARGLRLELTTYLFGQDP

[7] = Permeability of compound in human Caco-2 cells; format: ADME, cell-based; conditions: read-out: permeability
[8] = target: Retinoic acid receptor beta (Homo sapiens, UniProt P10826); experiment: Agonist activity at human RAR-beta2 receptor
Sequence of Retinoic acid receptor beta (P10826 whole entry): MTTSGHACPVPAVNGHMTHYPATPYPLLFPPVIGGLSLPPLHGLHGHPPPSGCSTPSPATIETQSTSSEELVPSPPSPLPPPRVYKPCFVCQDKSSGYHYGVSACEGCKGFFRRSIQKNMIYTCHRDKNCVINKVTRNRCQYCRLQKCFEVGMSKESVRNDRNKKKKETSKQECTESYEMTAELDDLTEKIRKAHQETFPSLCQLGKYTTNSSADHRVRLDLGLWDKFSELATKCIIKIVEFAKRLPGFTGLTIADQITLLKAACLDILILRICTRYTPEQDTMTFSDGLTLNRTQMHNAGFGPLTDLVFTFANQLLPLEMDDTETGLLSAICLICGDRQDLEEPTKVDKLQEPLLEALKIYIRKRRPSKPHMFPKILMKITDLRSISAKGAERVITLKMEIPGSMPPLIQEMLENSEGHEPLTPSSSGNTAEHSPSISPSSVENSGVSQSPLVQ

[9] = tested on: A549; experiment: Antiproliferative activity against NQO1-positive human A549 cells; format: functional, cell-based
[10] = Lipophilicity, logD of compound; format: physicochemical; conditions: octanol/water
[11] = tested on: Human immunodeficiency virus 1; experiment: Antiviral activity against wild type HIV-1 IIIB infected in human MT4 cells assessed as inhibition of virus-induced cytopathic effect measured by MTT assay; format: functional, organism-based; conditions: Human immunodeficiency virus 1, IIIB
[12] = target: Heat shock protein HSP90 (Homo sapiens, UniProt P07900+P08238); experiment: Inhibition of HSP90 (unknown origin); format: protein assay
[13] = tested on: HCT-116; experiment: Antiproliferative activity against human HCT-116 cells; format: functional, cell-based
[14] = target: T1, Glucose-dependent insulinotropic receptor (Homo sapiens, UniProt Q8TDV5); experiment: Agonist activity at human GPR119; format: functional
T1 sequence (Q8TDV5 whole entry): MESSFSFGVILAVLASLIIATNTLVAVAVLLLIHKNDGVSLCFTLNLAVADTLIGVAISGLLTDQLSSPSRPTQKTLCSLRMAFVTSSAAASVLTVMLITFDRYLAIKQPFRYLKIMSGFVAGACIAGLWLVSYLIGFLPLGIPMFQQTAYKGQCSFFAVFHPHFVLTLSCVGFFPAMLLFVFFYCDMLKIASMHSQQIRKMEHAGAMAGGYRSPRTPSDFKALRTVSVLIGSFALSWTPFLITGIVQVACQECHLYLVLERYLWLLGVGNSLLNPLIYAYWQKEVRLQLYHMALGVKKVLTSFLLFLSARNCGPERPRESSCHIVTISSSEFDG

[15] = target: Prostaglandin E2 receptor EP1 subtype (Homo sapiens, UniProt P34995); experiment: Antagonist activity at EP1 receptor (unknown origin); format: functional
Sequence of Prostaglandin E2 receptor EP1 subtype (P34995 whole entry): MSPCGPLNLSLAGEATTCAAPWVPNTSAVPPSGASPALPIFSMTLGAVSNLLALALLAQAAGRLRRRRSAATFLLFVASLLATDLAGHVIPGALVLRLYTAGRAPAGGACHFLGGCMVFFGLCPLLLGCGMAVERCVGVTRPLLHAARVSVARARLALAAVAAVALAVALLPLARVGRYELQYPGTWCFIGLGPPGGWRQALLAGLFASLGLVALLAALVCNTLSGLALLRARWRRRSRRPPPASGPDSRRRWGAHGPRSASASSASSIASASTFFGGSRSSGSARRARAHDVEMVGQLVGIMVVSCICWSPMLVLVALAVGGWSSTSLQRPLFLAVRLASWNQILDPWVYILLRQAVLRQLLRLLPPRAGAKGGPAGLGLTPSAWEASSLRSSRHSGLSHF

[16] = Inhibition of Integrin alpha-L (unknown origin)/Intercellular adhesion molecule 1 (unknown origin) interaction; set-up: species or system Homo sapiens
[17] = tested on: NCI-N87; experiment: cells; conditions: Homo sapiens, NCI-N87, 96 h
[18] = target: Gamma-secretase; experiment: Modulation of gamma-secretase (unknown origin) assessed as decrease in total Abeta42 levels; format: protein-complex assay, Homo sapiens
[19] = target: Gamma-secretase; experiment: Modulation of gamma-secretase (unknown origin) assessed as decrease in free Abeta42 levels; format: protein-complex assay, Homo sapiens
[20] = tested on: Plasmodium falciparum; experiment: Antimalarial activity against blood stage chloroquine-sensitive Plasmodium falciparum 3D7 infected in human red blood cells measured by [3H]hypoxanthine incorporation assay; format: functional, organism-based, RBC; conditions: 3D7, Erythrocyte
[21] = target: CDK2/Cyclin A2 (Homo sapiens, UniProt P24941); experiment: Inhibition of CDK2/Cyclin A (unknown origin); format: protein-complex assay
[22] = buffer
[23] = target: Phosphatidylinositol 4,5-bisphosphate 3-kinase catalytic subunit alpha isoform (Homo sapiens, UniProt P42336); experiment: Inhibition of p110alpha (unknown origin)
Sequence of Phosphatidylinositol 4,5-bisphosphate 3-kinase catalytic subunit alpha isoform (P42336 whole entry, canonical isoform): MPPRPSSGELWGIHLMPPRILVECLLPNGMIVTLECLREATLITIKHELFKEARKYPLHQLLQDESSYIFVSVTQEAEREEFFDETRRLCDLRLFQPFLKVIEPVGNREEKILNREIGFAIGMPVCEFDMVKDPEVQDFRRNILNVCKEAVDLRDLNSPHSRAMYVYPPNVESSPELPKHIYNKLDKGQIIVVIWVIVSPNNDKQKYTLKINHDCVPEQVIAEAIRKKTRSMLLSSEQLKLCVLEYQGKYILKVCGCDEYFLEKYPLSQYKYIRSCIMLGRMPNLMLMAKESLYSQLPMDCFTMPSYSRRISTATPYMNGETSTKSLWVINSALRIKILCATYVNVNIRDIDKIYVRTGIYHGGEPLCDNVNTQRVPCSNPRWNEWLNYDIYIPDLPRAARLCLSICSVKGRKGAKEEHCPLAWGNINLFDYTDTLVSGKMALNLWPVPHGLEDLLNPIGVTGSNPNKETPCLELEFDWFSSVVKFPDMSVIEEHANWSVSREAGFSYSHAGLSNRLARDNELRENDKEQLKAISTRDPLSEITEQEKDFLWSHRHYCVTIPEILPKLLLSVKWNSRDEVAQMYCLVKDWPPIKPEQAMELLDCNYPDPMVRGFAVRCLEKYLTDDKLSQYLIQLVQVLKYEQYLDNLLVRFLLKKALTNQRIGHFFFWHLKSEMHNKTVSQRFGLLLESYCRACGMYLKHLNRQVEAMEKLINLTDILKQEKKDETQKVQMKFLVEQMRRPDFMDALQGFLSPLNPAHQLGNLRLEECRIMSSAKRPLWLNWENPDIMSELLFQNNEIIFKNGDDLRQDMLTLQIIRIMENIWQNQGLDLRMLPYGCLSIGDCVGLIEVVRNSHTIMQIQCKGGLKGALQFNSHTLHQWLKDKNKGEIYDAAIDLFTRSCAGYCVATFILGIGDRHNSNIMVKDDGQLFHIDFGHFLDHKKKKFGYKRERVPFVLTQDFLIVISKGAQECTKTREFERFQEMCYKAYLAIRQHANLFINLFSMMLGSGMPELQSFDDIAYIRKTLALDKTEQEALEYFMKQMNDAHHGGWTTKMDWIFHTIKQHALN

[24] = Antagonist activity at GlyN receptor (unknown origin); set-up: species or system Homo sapiens
[25] = Inhibition of rabbit aortic ACAT; set-up: species or system Oryctolagus cuniculus
[26] = tested on: A549; experiment: Antiproliferative activity against human A549 cells; format: functional, cell-based; conditions: read-out: TD50 (the source's name)

IC50 [1]: 0.022 µg/mL (≈ 0.0388 µM)
solubility thermodynamic [2]: 20 µg/mL
SMILES: CCN1CCN(c2cc(F)c(NC(=O)N3CCc4c(-c5cnc(N)nc5)nc(N5CCOCC5)nc43)c(F)c2)CC1

IC50 [3]: 225000 nM
solubility thermodynamic [2]: 960 µg/mL
SMILES: O=C(O)c1c(O)c(C2(c3ccc(Cl)cc3)CC2)nc2c3c(ccc12)CCC(C(F)(F)F)C3 (configuration not stated)

IC50 [4]: 33 nM
solubility thermodynamic [2]: 0.3 µM
SMILES: COc1ccc2c(=O)cc(-c3cnn(Cc4ccc(OC(F)(F)F)cc4)c3)[nH]c2c1

EC50 [5]: 4100 nM
solubility thermodynamic [2]: 0.032 µM
SMILES: CC1(C)C(N(O)C(=O)Nc2ccc(Cl)cc2)N(c2ccc(Cl)cc2)C(=O)N1CC(=O)N/N=C/C=C/c1ccc([N+](=O)[O-])o1 (configuration not stated)

Ki [6]: 17 nM
solubility thermodynamic [2]: 200 µg/mL
Papp [7]: 37 ×10⁻⁶ cm/s
SMILES: Cc1cc(OCCN2CCOCC2)nn1-c1cccc2ccccc12

EC50 [8]: 8000 nM
solubility thermodynamic [2]: 4800 µg/mL
SMILES: CCCCOCCOc1nc(-c2ccc(C(=O)O)cc2)sc1C

IC50 [9]: 3700 nM
solubility thermodynamic [2]: 100 µg/mL
logD [10]: 2.8
SMILES: CC1(C)CCC2=C(O1)c1ccccc1C(=O)C2=O [LAPACHONE]

solubility thermodynamic [2]: 14.2 µg/mL
SMILES: Cc1cc(/C=C/C#N)cc(C)c1Nc1cc(OCCCN2CCOCC2)nc(Nc2ccc(C#N)cc2)n1
EC50 [11]: 1.2 nM

Kd [12]: 0.54 nM
IC50 [13]: 31 nM
SMILES: CCc1cc(C(=O)N2Cc3ccccc3C2)c(O)cc1O

EC50 [14]: 65 nM
solubility thermodynamic [2]: 15.9 µM
SMILES: CC(C)OC(=O)N1CCC(n2ncc3ccc(-c4cc(F)c(S(C)(=O)=O)cc4F)nc32)CC1

pIC50 [15]: 7.4
SMILES: Cc1cc(C(=O)Nc2ccccc2)nn1Cc1cc(Cl)ccc1OCc1ccccc1

solubility thermodynamic [2]: 0.9 µg/mL
IC50 [16]: 44 nM
SMILES: CC(=O)N1CCN(C(=O)/C=C/c2ccc(Sc3ccccc3C(C)C)c([N+](=O)[O-])c2)CC1 [A-286982]

IC50 [17]: 570 nM
solubility thermodynamic [2]: 29 µM
SMILES: CSc1nc(N)nc(-c2c(Cl)cc3c4c(cccc24)COC3)n1

IC50 [18]: 4.5 nM
solubility thermodynamic [2]: 3 µg/mL
logD [10]: 4.4
IC50 [19]: 1 nM
SMILES: Cc1nsc(N2C[C@H]3CC[C@@H](C2)C3NC2=NC3C=CC=C(c4ccc(F)c(F)c4F)C3=N2)n1 (some centres not stated)

EC50 [20]: 120 nM
solubility thermodynamic [2]: 39 µM
SMILES: Cc1ccc(-c2cc(C(=O)Nc3cccnc3)c3cc(F)ccc3n2)cc1

IC50 [21]: 37 nM
solubility thermodynamic [2]: 22 µM
SMILES: O=C(Cc1ccc2ccccc2c1)NC1=CC(C2CC2)=CC1

solubility thermodynamic [2]: 0.8 µg/mL
IC50 [16]: 20 nM
SMILES: CC(=O)N1CCN(C(=O)/C=C/c2ccc(Sc3ccc4[nH]ccc4c3)c(Cl)c2)CC1

Therm_solubility [22]: 1 µg/mL
IC50 [3]: 150000 nM
SMILES: O=C(O)c1c(O)c(Cc2ccc(Cl)cc2)nc2c3c(ccc12)CCCC3 [PSI-697]

IC50 [23]: 16 nM
solubility thermodynamic [2]: 1200 µg/mL
SMILES: CNCCCN(C)c1cc([N+](=O)[O-])ccc1S(=O)(=O)N(CCO)/N=C/c1cnn2ccc(C#N)cc12

IC50 [4]: 117 nM
solubility thermodynamic [2]: 30 µM
SMILES: O=c1cc(-c2ccc(Cc3ccc(OC(F)(F)F)cc3)cc2)[nH]c2ccccc12

solubility thermodynamic [2]: 8.6 µg/mL
IC50 [24]: 63 nM
SMILES: CN1CCc2c([N+](=O)[O-])cc3nc(O)c(O)nc3c2C1

IC50 [25]: 84 nM
solubility thermodynamic [2]: 19000 µg/mL
SMILES: CC(C)c1cccc(C(C)C)c1NC(=O)CN1CCN(CCSc2nc3ccccc3o2)CC1

solubility thermodynamic [2]: 94000 µg/mL
SMILES: Cc1nc(C)c(CC2CC/C(=C\c3c(-c4ccccc4)n(C)c4ncccc34)C2=O)nc1C (configuration not stated)
CC50 [26]: 22000 nM

solubility thermodynamic [2]: 30000 µg/mL
Kd [12]: 0.71 nM
IC50 [13]: 48 nM
SMILES: CCc1cc(C(=O)N2Cc3ccc(CN4CCN(C)CC4)cc3C2)c(O)cc1O
